Source: patent US8765803B1, “Rab7 GTPase inhibitors and related methods of treatment” (STC.UNM, priority 2011, dated 2014)

Assays:
U937 cells = experiment: Cytotoxicity of compounds, cell density and viability; format: cell-based; details: 24 h
Experimental: U937 cells were grown to a density of 0.4×10^6 cells/mL Compounds were added to a final concentration of 20 μM or otherwise indicated. As a control, cells were treated with DMSO of the same volume. After 24 h incubation, the density and viability of the cells were measured with Countess Cell Counter according to the protocols from the manufacturer.

Rab7 GTPase = target: T1, Rab7 GTPase (UniProt P18067); experiment: Multiplex bead-based flow cytometry dose-response, BODIPY-FL-GTP binding to GST-tagged GTPase; details: for EC50: mean of n replicates; for % Res: percent response
T1 construct: fused on or other part: GST tag, used to hold the protein on glutathione beads

[1] = Assay format EDTA (1 mM EDTA buffer, 100 nM BODIPY-FL-GTP)
[2] = Assay format Mg (1 mM Mg2+ buffer, 1 nM BODIPY-FL-GTP)

| SMILES | Cell viability of U937 cells after treatment (U937 cells; 100 μM) | EC50 (Rab7 GTPase; [1]) [nM] | % Res (Rab7 GTPase; Assay format EDTA) [%] | EC50 (Rab7 GTPase; [2]) [nM] | % Res (Rab7 GTPase; Assay format Mg) [%] | Cell viability of U937 cells after treatment (U937 cells; 20 μM) [%] |
| --- | --- | --- | --- | --- | --- | --- |
| CC1Cc2c(sc(NC(=S)NC(=O)c3ccccc3)c2C(=O)O)CO1 (stereo not drawn) [CID46916263, 2-(3-benzoylthioureido)-5-methyl-5,7-dihydro-4H-thieno[2,3-c]pyran-3-carboxylic acid] | 94% (100 μM) |  |  |  |  |  |
| O=C(NC(=S)Nc1sc2c(c1C(=O)O)CCOC2)c1ccccc1 [CID46916266, 2-(3-benzoylthioureido)-5,7-dihydro-4H-thieno[2,3-c]pyran-3-carboxylic acid] | 92% (100 μM) |  |  |  |  |  |
| CC1(C)Cc2c(sc(NC(=S)NC(=O)c3cccc(F)c3)c2C(=O)O)CO1 [CID53301930] |  | 320 ± 90 | 90 ± 6 | 290 ± 190 | 39 ± 3 | 92 |
| COc1ccc(C(=O)NC(=S)Nc2sc3c(c2C(=O)O)CC(C)(C)OC3)cc1 [CID53301932, 2-(3-(4-Methoxybenzoyl)thioureido)-5,5-dimethyl-5,7-dihydro-4H-thieno[2,3-c]pyran-3-carboxylic acid] |  | 140 ± 70 | 94 ± 14 | 140 ± 110 | 54 ± 2 | 96 |
| CC1(C)Cc2c(sc(NC(=S)NC(=O)c3ccc(Br)cc3)c2C(=O)O)CO1 [CID53301933] |  | 300 ± 180 | 93 ± 6 | 270 ± 220 | 41 ± 6 | 93 |
| CC1(C)Cc2c(sc(NC(=S)NC(=O)c3ccccc3F)c2C(=O)O)CO1 [CID53301935, 2-(3-(2-fluorobenzoyl)thioureido)-5,5-dimethyl-5,7-dihydro-4H-thieno[2,3-c]pyran-3-carboxylic acid] |  | 140 ± 160 | 97 ± 15 | 170 ± 210 | 45 ± 2 | 96 |
| CC1(C)Cc2c(sc(NC(=S)NC(=O)c3cccc(Br)c3)c2C(=O)O)CO1 [CID53301936] |  | 2510 ± 2100 | 41 ± 0 | > 100000 |  |  |
| Cc1ccc(C(=O)NC(=S)Nc2sc3c(c2C(=O)O)CC(C)(C)OC3)cc1 [CID53377395] |  | 140 | 102 | 97 | 40 |  |
| CC1(C)Cc2c(sc(NC(=S)NC(=O)C3CCCCC3)c2C(=O)O)CO1 [CID53377396] |  | 810 | 89 | 460 | 39 |  |
| COc1ccccc1C(=O)NC(=S)Nc1sc2c(c1C(=O)O)CC(C)(C)OC2 [CID53377397] |  | 1120 | 52 |  |  |  |
| CC1(C)Cc2c(sc(NC(=S)NC(=O)c3cccs3)c2C(=O)O)CO1 [CID53377398] |  | 25 | 103 | 25 | 56 |  |
| CC(C)(C)C1Cc2c(sc(NC(=S)NC(=O)c3ccccc3)c2C(=O)O)CO1 (stereo not drawn) [CID53377399] |  | 470 | 18 | 220 | 47 |  |
| Cc1cccc(C(=O)NC(=S)Nc2sc3c(c2C(=O)O)CC(C)(C)OC3)c1 [CID53377400] |  | 1160 | 93 | 360 | 30 |  |
| CCC1(C)Cc2c(sc(NC(=S)NC(=O)c3ccccc3)c2C(=O)O)CO1 (stereo not drawn) [CID53377401] |  | 37 | 109 | 35 | 43 |  |
| CC1(C)Cc2c(sc(NC(=S)NC(=O)c3ccco3)c2C(=O)O)CO1 [CID53377402] |  | 74 | 105 | 82 | 63 |  |
| O=C(NC(=S)Nc1sc2c(c1C(=O)O)CC1(CCCC1)OC2)c1ccccc1 [CID53377403] |  | 35 | 72 | 33 | 56 |  |
| Cc1ccccc1C(=O)NC(=S)Nc1sc2c(c1C(=O)O)CC(C)(C)OC2 [CID53377404] |  | 410 | 95 | 520 | 47 |  |
